Measured values as given in US4386103A, “Dichloroamino acid derivatives useful as potent germicidal and fungicidal agents” (Merck & Co., Inc., priority 1981, dated 1983).

Key:
Type in all cases: cell-based
Staphylococcus aureus = test: Contact germicidal screen, Staphylococcus aureus ATCC No. 6538
Protocol: (§1) The organisms used in the contact germicidal screen are all maintained as stock cultures on nutrient agar […] 4° C. They are transferred and biochemically diagnosed monthly. The five organisms used are: The media used are: […] Overnight cultures of the test organisms are grown in tryptose phosphate broth. After 15-16 hours, the cultures are centrifuged at […] for 15 minutes, and the supernatant replaced with fresh warm (37° C.) media. After two hours of incubation, the absorbance of the culture at 650 nm is determined and diluted with nutrient broth to 1×10^7 colony forming units per ml (using a previous determined standard curve: colony forming units/ml vs. absorbance at 650). The diluted cultures are maintained at 4°-8° C. throughout the screen. The compounds are weighed into sterile 100 ml volumetric flasks, and immediately before screening dissolved in one of the following buffers: 0.1 M NaOAc pH 4.6 or 0.1 M NaH2 PO4 pH 7.0. If solubility poses a problem, 10-30% methanol is used to effect solution. Two denaturing agents are also tested: […] Horse Serum restored with 100 ml distilled water and 10% Trition×100. When used, 2.5 ml of the denaturing agent is mixed with 2.5 ml of double strength test solution thirty minutes before the bacterial suspension is added. The screen is initiated when 0.2 ml of the bacterial suspension is added to 5.0 ml of the test solution contained in a sterile 25 ml glass stoppered flask. At intervals of 0.5, 2.5, 5.0, 10.0 and 15.0 minutes, a loopful of the inoculated test solution is subcultured into 5 ml of sterile nutrient broth and mixed with a vortex, the high dilution serving to stop the action of the compound. All of the subculture tubes are incubated at 37° C. and checked for signs of growth by turbidity at 1, 3, 5 and 7 days. The earliest subculture time at which no growth is present is considered the endpoint and is recorded as the sterilization time. An aliquot of 0.2 ml of the diluted culture is transferred to 5 ml of buffer to simulate 0.2 ml in 5 ml of test solution. (a) Purity: A loopful of the inoculated buffer is streaked onto nutrient agar to check colony morphology and lack of contaminants. (b) Viability: A loopful of the inoculated buffer is subcultured to 5 ml of nutrient broth as in the screen and incubated at 37° C. for 24 hours. (c) Dilution of the Test Solution: A loopful of the test solution is transferred to a 5 ml tube of nutrient broth, and a loopful of the inoculated buffer is transferred to the same tube of broth. […] (d) Purity of Organisms in the Test Solution: After the 15 minute subculture, a loopful of the inoculated test solution is streaked onto nutrient agar to insure that contamination has not occurred during the screen. (e) lack of Bactericidal Activity of Buffers and Other Solvents: Before a buffer or other solvent is used as a diluent, it is screened against the five organisms to insure that the buffer or solvent has no antibacterial activity itself.

Pseudamonas aeruginosa = test: Contact germicidal screen, Pseudamonas aeruginosa ATCC No. 14502
Protocol: as §1

Microsporum canis = test: Contact fungicidal screen, Microsporum canis; conditions: 0.1M NaOAc pH 4.6
Protocol: The organisms used in the Contact Fungicidal Screen are a dermatophyte, trychophyton mentagrophytes, frequently associated with athlete's foot; a yeast, Candida albican, causative agent of thrush and vaginitis; a phycomycete, Rhizopus oryzae, commonly known as black bread mold; an ascomycete, Aspergillus fumagatis, found in chicken droppings and causing lung infections; and another dermatophyte, Microsporum canis, which causes ringworm. These organisms are maintained as stock cultures at 4° C. on agar […] of the following composition: dextrose 2%, Neopeptone (Difco) 1%, agar 2%. Fluid medium of the same nutrient composition (without agar) was used to test the viability of the organisms after exposure to the fungicide. This medium is also known as Sabouraud's medium. Sabouraud's agar plate cultures of Aspergillus fumigatus, Microsporum canis, and a different culture of Trychophyton mentagrophytes are prepared by planting an inoculum at the center of an agar plate and incubating at 25°-30° C. for seven to ten days. The mycelial mats are removed from the surface of the agar and prepared in the same manner as the Rhizopus culture. The compounds are weighed into heat sterilized 100 ml volumetric flasks and immediately before screening dissolved in 0.1 M NaOAc pH 4.6 buffer (test solutions). The Aspergillus, Candida, Microsporum and Rhizopus species are screened in a slightly different manner. Basically, the procedure for the Contact Germicidal Efficiency Screen is utilized. After the test solutions are made up, 5 ml aliquots are pipetted into heat sterilized 25 ml glass stoppered erlenmeyer flasks. The screen is initiated when 0.5 ml of the 5×10^6 cell (spore) per ml suspension is added to the flask containing 5 ml of the test solution. […] The subculture tubes are incubated at 25°-30° C. for ten days with daily observation for mycelial growth. The earliest subculture time at which no growth is present is considered the endpoint and is recorded as the sterilization time. To insure the viability of the culture, a 0.5 ml aliquot of the 5×10^6 cells (spores) per ml suspension is transferred to 5 ml of the pH 4.6 buffer. A loopful of the inoculated buffer is then subcultured to 7 ml of fluid Sabouraud's medium and incubated at 25°-30° C. for ten days. To insure that the dilution of the test solution into the subculture medium does stop the action, a loopful of the test solution and a loopful of the inoculated buffer are transferred into the same subculture tube. This tube is also incubated at 25°-30° C. for ten days.

[1] = 10.0+ PPM, 0.1M NaOAc pH 4.6, screened simultaneously with four other compounds
[2] = 51.0 PPM, Triton X100 (10% solution):pH 4.6 buffer 1:1
[3] = 51.0 PPM, horse serum:pH 4.6 buffer 1:1
[4] = 300 PPM with 50% Horse Serum, 0.1M NaOAc pH 4.6
[5] = 300 PPM with 50% Triton X100, 0.1M NaOAc pH 4.6
[6] = 300 PPM, pH 4.6 buffer with 10% serum
[7] = 300 PPM, pH 4.6 buffer with 20% serum
[8] = 300 PPM, pH 4.6 buffer with 35% serum
[9] = 304.6 PPM, horse serum:pH 4.6 buffer 1:1
[10] = 304.8 PPM, Triton X100 (10% solution):pH 4.6 buffer 1:1
[11] = 606.9 PPM, pH 4.6 buffer with 33% serum
[12] = 899.25 PPM, pH 4.6 buffer with 25% serum
[13] = 1000 PPM with 50% Horse Serum, 0.1M NaOAc pH 4.6
[14] = 1001.2 PPM, horse serum:pH 4.6 buffer 1:1
[15] = 1016.0 PPM, 0.1M NaH2PO4 pH 7.0
[16] = 308.0 PPM, Triton X100 (10% solution):pH 4.6 buffer 1:1
[17] = 308.0 PPM, horse serum:pH 4.6 buffer 1:1
[18] = 1000.0 PPM, horse serum:pH 4.6 buffer 1:1
[19] = 1012.3 PPM, 0.1M NaH2PO4 pH 7.0

CC(C)(CC(=O)O)N(Cl)Cl [(II)]
15 min: Sterilization Time (Staphylococcus aureus; [3]) | Sterilization Time (summary) (Staphylococcus aureus; [4]) | Sterilization Time (Staphylococcus aureus; [9]) | Sterilization Time (Pseudamonas aeruginosa; 1.8 PPM, 0.1M NaOAc pH 4.6) | Sterilization Time (Pseudamonas aeruginosa; [3]) | Sterilization Time (Pseudamonas aeruginosa; 107.8 PPM, 0.1M NaH2PO4 pH 7.0) | Sterilization Time (summary) (Pseudamonas aeruginosa; [4]) | Sterilization Time (Pseudamonas aeruginosa; [9]) | Sterilization Time (Microsporum canis; 10 PPM)
0.5 min: Sterilization Time (Staphylococcus aureus; 71.7 PPM, 0.1M NaOAc pH 4.6) | Sterilization Time (summary) (Staphylococcus aureus; 100 PPM, 0.1M NaOAc pH 4.6) | Sterilization Time (Staphylococcus aureus; 104.7 PPM, 0.1M NaOAc pH 4.6) | Sterilization Time (Staphylococcus aureus; 298.9 PPM, 0.1M NaOAc pH 4.6) | Sterilization Time (summary) (Staphylococcus aureus; [5]) | Sterilization Time (Staphylococcus aureus; [6]) | Sterilization Time (Staphylococcus aureus; [10]) | Sterilization Time (Staphylococcus aureus; [11]) | Sterilization Time (Staphylococcus aureus; [12]) | Sterilization Time (summary) (Staphylococcus aureus; [13]) | Sterilization Time (summary) (Staphylococcus aureus; 1000 PPM, 0.1M NaOAc pH 4.6) | Sterilization Time (Staphylococcus aureus; [14]) | Sterilization Time (Staphylococcus aureus; 1014.8 PPM, 0.1M NaOAc pH 4.6) | Sterilization Time (Pseudamonas aeruginosa; 71.7 PPM, 0.1M NaOAc pH 4.6) | Sterilization Time (summary) (Pseudamonas aeruginosa; 100 PPM, 0.1M NaOAc pH 4.6) | Sterilization Time (Pseudamonas aeruginosa; 104.7 PPM, 0.1M NaOAc pH 4.6) | Sterilization Time (Pseudamonas aeruginosa; 298.9 PPM, 0.1M NaOAc pH 4.6) | Sterilization Time (summary) (Pseudamonas aeruginosa; [5]) | Sterilization Time (Pseudamonas aeruginosa; [6]) | Sterilization Time (Pseudamonas aeruginosa; [10]) | Sterilization Time (Pseudamonas aeruginosa; [12]) | Sterilization Time (summary) (Pseudamonas aeruginosa; 1000 PPM, 0.1M NaOAc pH 4.6) | Sterilization Time (Pseudamonas aeruginosa; 1014.8 PPM, 0.1M NaOAc pH 4.6)
5.0 min: Sterilization Time (Staphylococcus aureus; 316.6 PPM, 0.1M NaH2PO4 pH 7.0) | Sterilization Time (Pseudamonas aeruginosa; 4.5 PPM, 0.1M NaOAc pH 4.6) | Sterilization Time (Pseudamonas aeruginosa; 316.6 PPM, 0.1M NaH2PO4 pH 7.0)
2.5 min: Sterilization Time (Staphylococcus aureus; [1]) | Sterilization Time (summary) (Staphylococcus aureus; 10 PPM, 0.1M NaOAc pH 4.6) | Sterilization Time (Staphylococcus aureus; 10.0 PPM, 0.1M NaOAc pH 4.6) | Sterilization Time (Staphylococcus aureus; 12.2 PPM, 0.1M NaOAc pH 4.6) | Sterilization Time (Staphylococcus aureus; 32.1 PPM, 0.1M NaOAc pH 4.6) | Sterilization Time (Staphylococcus aureus; [2]) | Sterilization Time (Staphylococcus aureus; [7]) | Sterilization Time (Staphylococcus aureus; [15]) | Sterilization Time (Pseudamonas aeruginosa; [1]) | Sterilization Time (summary) (Pseudamonas aeruginosa; 10 PPM, 0.1M NaOAc pH 4.6) | Sterilization Time (Pseudamonas aeruginosa; 10.0 PPM, 0.1M NaOAc pH 4.6) | Sterilization Time (Pseudamonas aeruginosa; 12.2 PPM, 0.1M NaOAc pH 4.6) | Sterilization Time (Pseudamonas aeruginosa; 32.1 PPM, 0.1M NaOAc pH 4.6) | Sterilization Time (Pseudamonas aeruginosa; [2]) | Sterilization Time (Pseudamonas aeruginosa; [7]) | Sterilization Time (Pseudamonas aeruginosa; [11]) | Sterilization Time (summary) (Pseudamonas aeruginosa; [13]) | Sterilization Time (Pseudamonas aeruginosa; [14]) | Sterilization Time (Pseudamonas aeruginosa; [15]) | Sterilization Time (Microsporum canis; 1000 PPM)
15.0 min: Sterilization Time (Staphylococcus aureus; 1.8 PPM, 0.1M NaOAc pH 4.6)
10.0 min: Sterilization Time (Staphylococcus aureus; 4.5 PPM, 0.1M NaOAc pH 4.6) | Sterilization Time (Staphylococcus aureus; 107.8 PPM, 0.1M NaH2PO4 pH 7.0) | Sterilization Time (Staphylococcus aureus; [8]) | Sterilization Time (Pseudamonas aeruginosa; [8]) | Sterilization Time (Microsporum canis; 100 PPM)

CC(C)(CCC(=O)O)N(Cl)Cl [(III), 4-Dichloroamino-4-methylvaleric acid]
2.5 min: Sterilization Time (summary) (Staphylococcus aureus; 100 PPM, 0.1M NaOAc pH 4.6) | Sterilization Time (Staphylococcus aureus; 102.2 PPM, 0.1M NaOAc pH 4.6) | Sterilization Time (summary) (Staphylococcus aureus; [5]) | Sterilization Time (Staphylococcus aureus; [16]) | Sterilization Time (Pseudamonas aeruginosa; [1]) | Sterilization Time (summary) (Pseudamonas aeruginosa; 10 PPM, 0.1M NaOAc pH 4.6) | Sterilization Time (summary) (Pseudamonas aeruginosa; [5]) | Sterilization Time (Pseudamonas aeruginosa; [16])
5.0 min: Sterilization Time (Staphylococcus aureus; [1]) | Sterilization Time (summary) (Staphylococcus aureus; 10 PPM, 0.1M NaOAc pH 4.6) | Sterilization Time (summary) (Staphylococcus aureus; [4]) | Sterilization Time (Staphylococcus aureus; [17]) | Sterilization Time (Staphylococcus aureus; [19]) | Sterilization Time (Pseudamonas aeruginosa; 9.6 PPM, 0.1M NaOAc pH 4.6) | Sterilization Time (summary) (Pseudamonas aeruginosa; [13]) | Sterilization Time (Pseudamonas aeruginosa; [18]) | Sterilization Time (Pseudamonas aeruginosa; [19]) | Sterilization Time (Microsporum canis; 100 PPM)
0.5 min: Sterilization Time (summary) (Staphylococcus aureus; [13]) | Sterilization Time (summary) (Staphylococcus aureus; 1000 PPM, 0.1M NaOAc pH 4.6) | Sterilization Time (Staphylococcus aureus; [18]) | Sterilization Time (Staphylococcus aureus; 1007.7 PPM, 0.1M NaOAc pH 4.6) | Sterilization Time (summary) (Pseudamonas aeruginosa; 100 PPM, 0.1M NaOAc pH 4.6) | Sterilization Time (Pseudamonas aeruginosa; 102.2 PPM, 0.1M NaOAc pH 4.6) | Sterilization Time (summary) (Pseudamonas aeruginosa; 1000 PPM, 0.1M NaOAc pH 4.6) | Sterilization Time (Pseudamonas aeruginosa; 1007.7 PPM, 0.1M NaOAc pH 4.6) | Sterilization Time (Microsporum canis; 1000 PPM)
10.0 min: Sterilization Time (Staphylococcus aureus; 9.6 PPM, 0.1M NaOAc pH 4.6)
15 min: Sterilization Time (Staphylococcus aureus; 9.7 PPM, 0.1M NaH2PO4 pH 7.0) | Sterilization Time (Staphylococcus aureus; 103.5 PPM, 0.1M NaH2PO4 pH 7.0) | Sterilization Time (Pseudamonas aeruginosa; 9.7 PPM, 0.1M NaH2PO4 pH 7.0) | Sterilization Time (Pseudamonas aeruginosa; 103.5 PPM, 0.1M NaH2PO4 pH 7.0) | Sterilization Time (summary) (Pseudamonas aeruginosa; [4]) | Sterilization Time (Pseudamonas aeruginosa; [17]) | Sterilization Time (Microsporum canis; 10 PPM)
